Laboratory results: patent US20210393855A1, “NEW HYDROGELS HAVING A SILYLATED STRUCTURE, AND METHOD FOR OBTAINING SAME” (Universite de Montpellier, priority 2015, published 2021)

Assay: Fluorescein release from hydrogels in phosphate buffer, monitored by HPLC
Assay type: physicochemical
Conditions: covalently grafted in PEG hydrogel, plateau after 72 hours
Text: FIG. 2: this figure concerns tests to quantify the release of fluorescein from various hydrogels according to the invention. The hydrogels grafted with fluorescein by covalent bond show much lower release rates than the hydrogel containing fluorescein simply enclosed with no covalent bond.
In order to show the covalent incorporation of a (bio)molecule into the gel and the absence of release over time of the grafted molecules, fluorescein derivatives were selected to be chemically linked to the hydrogels in accordance with the present invention (see FIG. 2 for the exact formulae). Thus, if there were to be a release of the grafted molecules, the use of fluorescein would make it possible to easily detect it.
Fluorescein isothiocyanate (FITC) was used to prepare two types of fluorescein derivatives giving covalent bonds (triethoxysilane and dimethylhydroxysilane), as well as a non-silylated molecule used as control. Each fluorescein derivative was dissolved at a concentration of 5.2 mM in a solution of bi-silylated hybrid PEG, itself at a concentration of 10% by mass relative to the mass of DPBS used as solvent. Sodium fluoride was added, and the solutions were homogenized. Fluorescent hybrid hydrogels were obtained at 37° C. in 30 minutes. The various hydrogels were placed in phosphate buffer (10 mL) and fluorescein release was monitored by HPLC. […]

For `C[Si](C)(O)CCCNC(=O)NCCCNC(=S)Nc1ccc(-c2c3ccc(=O)cc-3oc3cc(O)ccc23)c(C(=O)O)c1` [dimethythydroxyfluorescein, Hydroxydimethylsilyl Fluorescein], the “maximum release (relative to the total amount of fluorescein introduced)” value was 20%.
